Experimental data: PubChem BioAssay (NCI)
“And” between values parts separate entries of the source, which are not always exact repeats. Equal entries are not always repeated.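 Step 1: Grow cells in 96-well plates. Step 2: Expose to compound for 48 hours at 5 concentrations. Step 3: Interpolate endpoints linearly; if unreached, use highest concentration. Here, GI50 denotes the concentration required for 50% inhibition of growth. Definition used: TGI = concentration required for complete inhibition of growth.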

Tests used:
Assay in all cases: NCI tumour cell line growth inhibition, 48 h
[1] = tested on: 786-0 renal
[2] = tested on: ACHN renal
[3] = tested on: BT-549 breast
[4] = tested on: CCRF-CEM leukemia
[5] = tested on: DU-145 prostate
[6] = tested on: HCC-2998 colon
[7] = tested on: RPMI-8226 leukemia
[8] = tested on: RXF 393 renal
[9] = tested on: SNB-19 CNS
[10] = tested on: U251 CNS

SMILES | GI50 [1] | TGI [1] | GI50 [2] [µM] | TGI [2] [µM] | GI50 [3] | TGI [3] [µM] | GI50 [4] | TGI [4] | GI50 [5] | TGI [5] [µM] | GI50 [6] | TGI [6] | GI50 [7] | TGI [7] [µM] | GI50 [8] | TGI [8] | GI50 [9] | TGI [9] [µM] | GI50 [10] | TGI [10]
CC(/C=N/N=C(N)N)=N\N=C(N)N | 6.12 µM and 1.67 µM | > 83.6 µM and 19.7 µM | > 43.5 | 2110 | 40.9 µM | 928 | 18.8 µM | > 78.5 µM and 1300 µM | 31 µM | 2240 | 9.52 µM | > 48.3 µM and 62.7 µM | > 42.8 µM | 454 | > 45.6 µM | 734 µM | 14.5 µM | 722 | 47.7 µM | 403 µM
CCCN1CCC=C(c2ccc(Nc3nc(Nc4ccccc4C(N)=O)c4cc[nH]c4n3)c(C)c2)C1 | 17.3 µM | > 25 µM | 15.4 | > 25 | 17.2 µM | > 25 | 3.32 µM | > 25 µM | 3.76 µM | > 25 | 5.7 µM | > 25 µM | 5.53 µM | > 21.7 | 11 µM | > 25 µM | > 25 µM | > 25 | 9.78 µM | > 25 µM
COc1cc(Cn2c(-c3ccccc3)cc3c2-c2oncc2CC3)cc(OC)c1 | 0.601 µM | > 100 µM | 0.786 | > 100 | 0.9 µM | > 100 | 0.337 µM | > 100 µM | 0.309 µM | 1.25 | 0.387 µM | > 100 µM | 0.459 µM | – | 0.296 µM | > 100 µM | 0.562 µM | > 100 | 0.427 µM | > 100 µM
N#C/C(=C\c1ccc2[nH]ccc2c1)C(=O)c1ccc(O)c(O)c1 | – | > 100 µM | – | > 100 | – | > 100 | – | > 85 µM | – | > 100 | – | > 100 µM | – | > 100 | – | > 100 µM | – | > 100 | – | > 100 µM
CN(C(=O)CNC(=O)/C=C/c1cccc(Cl)c1)C1CCS(=O)(=O)CC1 | 4.57 µM | > 100 µM | 46.4 | > 100 | 6.09 µM | > 100 | > 100 µM | > 100 µM | 0.47 µM | > 100 | 0.663 µM | > 100 µM | 14.8 µM | > 100 | 6.47 µM | 40.7 µM | > 100 µM | > 100 | 39.5 µM | > 100 µM
Nc1nc(N)c2c(n1)NC(c1sc(Cl)nc1Cl)CC(c1ccc3c(c1)OCO3)=N2 (configuration not stated) | 5.43 µM | 24.8 µM | 5.86 | 26.4 | 3.79 µM | 18.9 | 3.02 µM | 27 µM | 8.45 µM | 34.4 | 6.11 µM | 20 µM | 4.66 µM | 25 | 1.4 µM | 6.61 µM | 4.83 µM | 48.2 | – | –
O=C(NOCCO)c1cc(CN2OCCCC2=O)c(F)c(F)c1Nc1ccc(I)cc1F | 15.7 µM and > 10 µM | > 92.2 µM | 4.28 | > 100 | 17.3 µM and > 10 µM | > 100 | 39.5 µM and > 10 µM | > 100 µM | 12 µM and > 8.73 µM | > 100 | < 0.0111 µM and 0.00172 µM | – | 21.7 µM and > 5.14 µM | > 84.4 | 0.521 µM and 0.336 µM | 25.9 µM and > 10 µM | 3.68 µM and 1.64 µM | > 100 | 0.362 µM and 0.479 µM | 23.8 µM and > 10 µM
COc1ccc(C(=O)c2cc3c(N)c(C(=O)Nc4cccc(OC)c4)sc3nc2C)cc1 | 0.713 µM | > 100 µM | 0.853 | > 100 | 1.67 µM | > 100 | 0.363 µM | > 100 µM | 0.523 µM | > 100 | 2.2 µM | > 100 µM | 0.39 µM | – | 0.323 µM | – | 0.513 µM | > 100 | 0.55 µM | > 100 µM
Cc1cc2nc3c4ccc(Br)cc4n(CCN(C)C)c3nc2cc1C | 1.44 µM | 7.65 µM | 0.459 | 2.23 | 1.71 µM | 3.75 | 1.5 µM | 10.5 µM | 2.96 µM | 9.96 | 1.23 µM | 2.74 µM | 2.16 µM | 5.93 | 1.31 µM | 3.01 µM | 1.6 µM | 7.52 | 1.47 µM | 4.44 µM
O=C(Nc1cccc(C(F)(F)F)c1)c1cc2ccccc2cc1O | 2.08 µM | 35.5 µM | 1.78 | > 30.4 | 1.27 µM | 6.09 | 3.67 µM | > 100 µM | 2.22 µM | > 100 | 3.35 µM | 28.8 µM | 0.354 µM | 2.15 | 3.3 µM | > 30.4 µM | 1.75 µM | > 100 | 1.23 µM | > 100 µM
Cc1cc(Nc2nc(-c3ccncc3)nc3ccccc23)n[nH]1 | 2.98 µM | > 100 µM | 1.06 | > 100 | 9.09 µM | > 100 | 25.2 µM | > 100 µM | 24.2 µM | > 100 | 29.6 µM | > 100 µM | > 100 µM | > 100 | 0.91 µM | 9.29 µM | 83.1 µM | > 100 | 4.1 µM | > 100 µM
O=C(/C=C/c1cccc2ccccc12)Nc1ncc(Cc2ccccc2)s1 | 0.704 µM | 3.27 µM | 1.95 | 6.02 | 2.44 µM | > 100 | 0.852 µM | > 100 µM | 1.61 µM | > 100 | 2.57 µM | > 100 µM | 1.09 µM | > 100 | 0.436 µM | 1.66 µM | 0.971 µM | > 100 | 0.818 µM | 4.67 µM
O=C(Nc1nc2ccccc2s1)c1cc(-c2ccc(F)cc2)n2nc(-c3ccccc3)cc2n1 | 2.12 µM | 5.1 µM | – | – | 2.05 µM | 6.5 | 1.87 µM | 4.52 µM | 4.95 µM | > 100 | > 100 µM | > 100 µM | 5.59 µM | > 100 | 2.53 µM | 6.43 µM | 5.21 µM | > 100 | – | –
COc1ccc(C2=Nc3c/c(=C\c4c(O)[nH]c5cc(Cl)ccc45)ccc3=N2)cc1 | 7.85 µM | 20.6 µM | 17.3 | 41.3 | 3.65 µM | 18.3 | 1.41 µM | 9.21 µM | 6.6 µM | 21.6 | 10.2 µM | 22.1 µM | 1.73 µM | 4.62 | 3.16 µM | 12.2 µM | 15.1 µM | 41.1 | 2.08 µM | 5.64 µM
CCCCCCCCCCSC(=N)N | 4.92 µM | 19.5 µM | 2.82 | 9.33 | 11.3 µM | 24.6 | – | – | 6.63 µM | 19.3 | 1.72 µM | 3.31 µM | 1.73 µM | 4.19 | 5.1 µM | 17.6 µM | 5.17 µM | 19.2 | 2.37 µM | 6.72 µM
Cc1ccc(-c2n[nH]c(=O)c3noc(-c4ccc(C)cc4)c23)cc1 | 2.78 µM | 24.9 µM | 3.16 | 73.3 | 1.33 µM | 12.8 | 2.45 µM | > 100 µM | 2.82 µM | 15.2 | 3.89 µM | > 100 µM | 0.616 µM | > 100 | 0.419 µM | 2.08 µM | 2.13 µM | 42.8 | 0.814 µM | 18.8 µM
CN=C(N)N/N=C(\C)c1ccc2c(c1)Cc1ccccc1-2 | 1.86 µM | 3.74 µM | 1.78 | 3.61 | 10.2 µM | 27.9 | 1.73 µM | 7.14 µM | 1.12 µM | 3.17 | 1.67 µM | 3.09 µM | 1.72 µM | 4.16 | 4.06 µM | 66.5 µM | 3.46 µM | 21.8 | – | –
CC(N1CCOCC1)C(O)(c1ccccc1)c1ccccn1 (configuration not stated) | – | > 100 µM | – | > 100 | – | > 100 | – | – | – | > 100 | – | 38.9 µM | – | > 100 | – | > 100 µM | – | > 100 | – | > 100 µM
O=C(/C=C/c1ccccc1)CCC1C(=O)NC(=S)NC1=O | – | > 100 µM | – | > 100 | – | > 100 | – | – | – | > 100 | – | > 100 µM | – | – | – | > 100 µM | – | > 100 | – | > 100 µM
O=C(O)CCc1nc(-c2ccccc2-n2cccc2)no1 | – | > 100 µM | – | > 100 | – | > 100 | – | – | – | > 100 | – | > 100 µM | – | > 100 | – | > 100 µM | – | > 100 | – | > 100 µM
